Entries after “also recorded” stand apart in the source; their conditions may differ.
Legend:
[1] = Human pharmacokinetics: plasma radioactivity after single oral dose of 14C-SR 46349B; format: in vivo
Protocol: (§1) The objective of this study was to quantitate the biotransformation of ^14 C-SR 46349B in humans. Six healthy male volunteers were treated orally with a single 30 mg dose of ^14 C-SR 46349B (corresponding to 35.4 mg of the salified compound), labeled on the C-1 position of the propenyl chain with ^14 C (1.375 MBq). Excretion-balance, plasma and blood pharmacokinetics of radioactivity, and clinical safety/tolerance were reported. Plasma, urine and fecal homogenates were analyzed for quantitation and identification of SR 46349B and metabolites.
(§2) Subjects were fasted overnight prior to the morning of ^14 C-SR 46349B administration. All subjects received a single oral 30 mg dose of ^14 C-SR 46349B (corresponding to 35.4 mg of the […] compound) in a single gelatin capsule. The capsule was dropped directly in the mouth and swallowed with 150 mL of tap water at about 8:00 AM. Ingestion of the capsule was verified by inspection of the oral cavity of each subject.
(§3) Blood samples were obtained at 0, 0.5, 1, 1.5, 2, 2.5, 3, 4, 6, 8, 10, 12, 16, 24, 36, 48, 72, 96, 120, 144, 168, 192, 216, 240, 264, 288 and 312 hr after dosing. For each sample, approximately 7 mL of blood (22 mL at 2, 3, 4, 8, 12, 24 and 48 hrs after dosing) was drawn into polypropylene collection tubes containing lithium heparin (as an anticoagulant). Following the removal of 1 mL of blood for radiocarbon analysis, samples were centrifuged (within 30 min) at 2000-3000×g for 10 min and the plasma transferred into polypropylene transport tubes. All samples were stored frozen (≤-18° C.) until analysis.
Aliquots of plasma and urine samples were added directly to Ready-Safe scintillant (9 mL), hand shaken for a few seconds and left for at least 2 hours prior to counting. Aliquots of fecal homogenates were weighed in a Combusto-Cone fitted with a CombustoPad. The samples were allowed to dry overnight before combustion in a Packard Sample Oxidizer, Model 307 (Meriden, Conn.). Carbo-Sorb and Permafluor E^+ were used as scintillants (10 mL). Samples mixed with scintillant were left for at least 4 hours prior to counting. Radioactivity assays were performed with a Packard Instruments Tri-Carb, Model 1600TR Liquid Scintillation System. The LOQ was set at 12 cpm above background.

[2] = Urinary excretion and urinary metabolite profiling in humans; format: in vivo, human; conditions: up to 336 hr post-dose, % of administered dose
Protocol: as §1
(§4) Subjects were fasted overnight prior to the morning of ^14 C-SR 46349B administration. All subjects received a single oral 30 mg dose of ^14 C-SR 46349B (corresponding to 35.4 mg of the unsalified compound) in a single gelatin capsule. […]
(§5) Aliquots of plasma and urine samples were added directly to Ready-Safe scintillant (9 mL), hand shaken for a few seconds and left for at least 2 hours prior to counting. […] Radioactivity assays were performed with a Packard Instruments Tri-Carb, Model 1600TR Liquid Scintillation System. […]
A representative pool of urine was prepared for each subject by mixing aliquots from each collection interval in proportion to the percent of radioactivity present in each collection interval. Pools were prepared to represent approximately 95% of total collected urinary radioactivity. […]

[3] = Fecal excretion and fecal metabolite profiling in humans; format: in vivo, human; conditions: up to 276 hr post-dose, % of administered dose
Protocol: as §1, §4, §5
A representative pool of fecal homogenate was prepared for each subject by mixing aliquots from each collection interval in proportion to the percent of radioactivity present in each collection interval. Pools were prepared to represent approximately 95% of total collected fecal radioactivity. […]

[4] = Biotransformation: excreted radioactivity (urine and feces) as SR 46349 and metabolites in humans; format: in vivo, human; conditions: for percentage of excreted radioactivity: urine and feces, excreted (recovered) radioactivity
Protocol: Excretion-balance, plasma and blood pharmacokinetics of radioactivity, and clinical safety/tolerance were reported.
The capsule was dropped directly in the mouth and swallowed with 150 mL of tap water at about 8:00 AM. Ingestion of the capsule was verified by inspection of the oral cavity of each subject.
A representative pool of urine was prepared for each subject by mixing aliquots from each collection interval in proportion to the percent of radioactivity present in each collection interval.
A representative pool of fecal homogenate was prepared for each subject by mixing aliquots from each collection interval in proportion to the percent of radioactivity present in each collection interval.
Metabolite quantitation was conducted with an HP1090 HPLC system (Hewlett Packard, Wilmington, Del. HPLC eluant was fraction collected (0.33 mL/fraction using a FOXY™ Model 200 fraction collector; Isco, Lincoln, Nebr.). Fractions were mixed with 5 mL of Biofluor cocktail and then counted using a Tri-Carb 2700TR liquid scintillation counter (Packard, Meriden, Conn.).
Sample extraction and HPLC column recoveries were calculated using measured radioactivity in samples, sample extracts and HPLC eluants. Recoveries of 100% were based on the expected amount of radioactivity in a sample prior to extraction or HPLC analysis.
Urinary and fecal metabolites are expressed as a percentage of the radioactivity in each matrix and as a percentage of excreted (recovered) radioactivity. Values were corrected for total experimental recoveries.

[5] = Plasma metabolite profiling in humans; format: in vivo, human; conditions: result in words; time points up to 48 hr
Protocol: as §1
Subjects were fasted overnight prior to the morning of ^14 C-SR 46349B administration. […]
Pools of plasma for each collection time were prepared by mixing equal amounts of plasma from all subjects. This made available enough plasma at each time point to quantitate metabolites. […] Due to low amounts of radioactivity in plasma, five concentrated extracts from the same time point were combined. […] Pools for each collection time were analyzed in triplicate.
Metabolite quantitation was conducted with an HP1090 HPLC system (Hewlett Packard, Wilmington, Del. HPLC eluant was fraction collected (0.33 mL/fraction using a FOXY™ Model 200 fraction collector; Isco, Lincoln, Nebr.). Fractions were mixed with 5 mL of Biofluor cocktail and then counted using a Tri-Carb 2700TR liquid scintillation counter (Packard, Meriden, Conn.). […]

[6] = test system: 5-HT2; conditions: result in words; U.S. Pat. No. 5,166,416; cited from earlier work
[7] = Human pharmacokinetics: plasma concentration of SR 46349 (HPLC-UV) after single oral dose of 14C-SR 46349B; format: in vivo
Protocol: as §1, §2, §3
The concentration of SR 46349 in plasma samples was determined using a validated HPLC method with UV detection at 320 nm. […] The samples were dried at room temperature and resuspended in 0.15 mL of mobile phase and 0.05 mL was analyzed. […]
Unknown concentrations of SR 46349 were quantified by reference to a 1/y^2 weighted regression analysis of the peak-area ratio (SR 46349/internal standard) versus concentration of the calibration curve standards. […]
Model-independent pharmacokinetic parameters for plasma concentrations of SR 46349 were calculated for each subject. The maximum observed plasma concentration (Cmax) of SR 46349 and its corresponding time (tmax) were determined by visual inspection of individual concentration-time profiles. Half-life (t 1/2) was calculated from the ratio of ln(2)/λZ, where λZ is the regressed slope of the terminal phase. The area under the plasma concentration of SR 46349-versus-time-curves (AUC(0-t)) was calculated using the trapezoidal rule. AUC was calculated for the sum of AUC(0-t) and Cp(1)/λZ wherein Cp(1) is the last measurable concentration time point. […]

## CN(C)CCO/N=[14C](/C=C/c1ccc(O)cc1)c1ccccc1F [^14 C-SR 46349B]
[1]; at similar tmax values, radioactivity / SR 46349
  maximal plasma concentrations of radioactivity relative to plasma concentrations of SR 46349: approximately 3 times
[1]; radioactivity / SR 46349
  AUC of plasma radioactivity relative to mean plasma AUC for SR 46349: approximately 11 times
[1]; single oral 30 mg 14C-SR 46349B, total radioactivity
  Cmax of plasma radioactivity, mean (±SD): 0.16 (±0.02) mg eq/L
[1]; single oral 30 mg, total radioactivity
  AUC of plasma radioactivity, mean (±SD): 13.7 (±2. 1) mg eq.circle-solid.hr/L
[2]
  cumulative urinary excretion of radioactivity, mean (±SD): 70.3 (±4.6) %
[2]; range over subjects
  cumulative urinary excretion of radioactivity, range: 63.1 to 77.1%
[3]
  cumulative fecal excretion of radioactivity, mean (±SD): 21.6 (±3.5) %
[3]; range over subjects
  cumulative fecal excretion of radioactivity, range: 16.4 to 26.5%

## C[N+](C)([O-])CCON=C(/C=C/c1ccc(O)cc1)c1ccccc1F [H22 & H23]
[4]
  percentage of excreted radioactivity: approximately 23%

## CN(C)CCON=C(/C=C/c1ccc(O)cc1)c1ccccc1F [SR 46349B, Trans 1-N,N-dimethylaminoethoxyimino 1-(2-fluorophenyl)-3-(4-hydroxyphenyl)2-propene hemifumarate]
[5]
  plasma concentration compared with any single metabolite: higher than any single metabolite, except at the 48 hr time point
[6]
  5-HT2 antagonist activity: potent 5-HT2 antagonist

## CN(C)CCON=C(/C=C/c1ccc(O)cc1)c1ccccc1F [SR 46349]
[7]; human, po, 30 mg, single oral 30 mg, mean (±SD), read-out: terminal elimination half-life of SR 46349 (converted)
  half-life: ~23 h
[7]; human, single oral 30 mg 14C-SR 46349B, healthy male volunteers, capsule, fasted, read-out: Cmax of SR 46349 in plasma, mean (±SD)
  Cmax: 50 ng/mL
[7]; human, single oral 30 mg, read-out: mean plasma AUC for SR 46349 (±SD), as restated in the discussion
  AUC: 1200 ng·h/mL
[7]; single oral 30 mg, mean (±SD)
  terminal elimination half-life of SR 46349: 22.9 (±7.3) hr
[5]
  plasma concentration compared with any single metabolite: always higher than any individual metabolite
[4]; result in words, human
  extent and pathways of metabolism: extensively metabolized; also recorded: N-oxidation, N-demethylation, sulfation and glucuronidation; also recorded: oxidation of SR 46349 (N-oxidation and N-demethylation) appears to be the major mechanism of metabolic clearance
[4]
  percentage of excreted radioactivity: approximately 6%

Reference: US5844000A, “Propenone oxime ethers and pharmaceutical compositions containing them” (Sanofi, priority 1997, dated 1998)
